Experimental data reported in patent publication US8039505B2, “Compounds for modulating T-cells” (University of Utah Research Foundation, priority 2007, dated 2011).
Where “and” joins values, the source holds several entries; their conditions need not be identical. Equal values may be shown once.

Assay: Pharmacokinetics in male Swiss Albino mouse, intravenous and oral (LC-MS/MS of plasma)
Assay type: in vivo
Details: for Individual plasma concentration: individual mice; for Mean plasma concentration: N = 3
Procedure: The pharmacokinetics of 1H-indole-3-carbaldehyde quinolin-8-ylhydrazone (Compound C3) was evaluated following intravenous (3 mg/kg) and oral (15 mg/kg) solution administration of 1H-indole-3-carbaldehyde quinolin-8-ylhydrazone in male Swiss Albino mouse. The effect of the Test Item, 1H-indole-3-carbaldehyde quinolin-8-ylhydrazone on complete blood count (CBC) was also evaluated. Pharmacokinetic phase consisted of two groups, Group 1 and Group 2. Animals in Group 1 were given intravenous bolus dose in a vehicle containing 5% N,N-dimethylacetamide, 5% CREMOPHOR™ EL and 90% Dextrose solution (5% w/v) and those in Group 2 were given oral solution dose in a vehicle, the composition of which was same as that of intravenous formulation. In addition, the effect of Test Item on complete blood count was evaluated following intravenous and oral dose administration along with its vehicle controls. A total of four groups were used each with 6 mice.
From the pharmacokinetic group, predose samples were collected from 3 animals in each group. Following dose administration terminal blood samples were collected at each of the following time points (in triplicate): 0.083 (only for intravenous), 0.25, 0.5, 1, 2, 4, 8, 12 and 24 hours. At each time point, approximately 500 μL of whole blood was withdrawn from the retro orbital sinus and collected in labeled tubes containing dipotassium EDTA as anticoagulant (20 μL of 200 mM K2 EDTA solution per mL of blood). Plasma was separated by centrifuging the whole blood at about 2500 g for 10 minutes at 4° C. within 1 h of sample collection. Separated plasma was stored below minus 50° C. until bioanalysis. A sensitive LC-MS/MS method was used for the quantitation of 1H-indole-3-carbaldehyde quinolin-8-ylhydrazone. The lower limit of quantitation was 1.04 ng/mL. For CBC evaluation, approximately 500 μL of blood was collected in labeled tubes containing dipotassium EDTA as anticoagulant (10 […]/mL of blood) after 48 h of dose administration from all animals.
A total of 57 mice were divided into an intravenous dose group of 30 mice (Group 1) and oral dose group of 27 mice (Group 2). Animals in Group 1 received intravenous bolus dose via tail vein at 3 mg/kg and animals in Group 2 received oral solution dose via gavage at 15 mg/kg. Three animals were administered the dose for each time point (intravenous: 10 time points; Oral: 9 time points). Terminal blood samples were collected from each mouse under light ether anesthesia and plasma was separated.
Animals in Group 1 were administered an intravenous bolus dose via the tail vein (dosing volume: 6 mL/kg). Animals in Group 2 received oral dose by gavage with an oral dosing needle (dosing volume: 10 mL/kg). Animals in the CBC evaluation group were treated same as above except the animals in control group received vehicle instead of formulation.
Pharmacokinetic group: Predose samples were collected from 3 animals in each group. Following dose administration terminal blood samples were collected at each of the following time points (in triplicate): 0.083 (only for intravenous), 0.25, 0.5, 1, 2, 4, 8, 12 and 24 hours. For each time point, approximately 500 μL of whole blood was withdrawn from the retro orbital sinus and collected in labeled tubes containing dipotassium EDTA as anticoagulant (20 μL of 200 mM K2 EDTA solution per mL of blood). Plasma was separated by centrifuging the whole blood at about 2500 g for 10 minutes at 4° C. within 1 h of sample collection. Separated plasma was stored below minus 50° C. until bioanalysis.
An LC-MS/MS method was developed and employed for the quantitation of 1H-indole-3-carbaldehyde quinolin-8-ylhydrazone in the mouse plasma samples. The samples were prepared for analysis following liquid-liquid extraction using amodiaquin as internal standard. The lower limit of quantitation was 1.04 ng/mL.
Pharmacokinetic parameters were calculated using non-compartmental analysis tool of WINNONLIN™ Enterprise software (Version 5.1.1). […]

[1] = mouse plasma, IV 3 mg/kg, 0.25 h samples, listed as ICQH, 3 mg/kg
[2] = mouse, intravenous bolus 3 mg/kg, 24 h, BLQ = below LLOQ 1.04 ng/mL
[3] = mouse, oral solution 15 mg/kg, 24 h, BLQ = below LLOQ 1.04 ng/mL

Accepted conc. (repeat analysis) [1]: 199.60 c ng/mL and 225.35 c ng/mL | Initial conc. (repeat analysis) [1]: 132.16 ng/mL | Repeated conc. (repeat analysis) [1]: 225.35 ng/mL | Clearance as share of liver blood flow (mouse, IV 3 mg/kg): about 60 % of liver blood flow | Volume of distribution (mouse, IV 3 mg/kg): 4.28 Ukg | Volume of distribution relative to total body water (mouse, IV 3 mg/kg): about 6 times of total body water | Time till which plasma concentrations were quantifiable (mouse, following both intravenous (3 mg/kg) and oral (15 mg/kg) administration): 12 h | Individual plasma concentration (mouse, intravenous bolus 3 mg/kg, 0.25 h, LLOQ 1.04 ng/mL, 3 mg/kg): 307.05 ng/mL and 225.35 ng/mL | Individual plasma concentration (mouse, intravenous bolus 3 mg/kg, 1 h, LLOQ 1.04 ng/mL, 3 mg/kg): 184.80 ng/mL and 140.18 ng/mL | Individual plasma concentration (mouse, intravenous bolus 3 mg/kg, 2 h, LLOQ 1.04 ng/mL, 3 mg/kg): 76.60 ng/mL and 47.02 ng/mL | Individual plasma concentration (mouse, intravenous bolus 3 mg/kg, 4 h, LLOQ 1.04 ng/mL, 3 mg/kg): 27.25 ng/mL and 38.13 ng/mL | Individual plasma concentration (mouse, intravenous bolus 3 mg/kg, 8 h, LLOQ 1.04 ng/mL, 3 mg/kg): 5.65 ng/mL and 11.10 ng/mL | Individual plasma concentration (mouse, intravenous bolus 3 mg/kg, 12 h, BLQ = below LLOQ 1.04 ng/mL, 3 mg/kg): 2.20 ng/mL and BLQ | Individual plasma concentration (mouse, intravenous bolus 3 mg/kg, 12 h, BLQ = below LLOQ 1.04 ng/mL, listed as ICQH, 3 mg/kg): 1.68 ng/mL and 2.20 ng/mL and BLQ | Mean plasma concentration [2]: BLQ | Individual plasma concentration [2]: BLQ | Time of maximum concentration post-dose (mouse, oral solution 15 mg/kg): 1.0 h | Individual plasma concentration (mouse, oral solution 15 mg/kg, 8 h, LLOQ 1.04 ng/mL): 71.29 ng/mL and 78.06 ng/mL | Mean plasma concentration [3]: BLQ | Individual plasma concentration [3]: BLQ
SMILES: C(=NNc1cccc2cccnc12)c1c[nH]c2ccccc12 [Compound C3, 1H-indole-3-carbaldehyde quinolin-8-ylhydrazone]
Individual plasma concentration (mouse, intravenous bolus 3 mg/kg, 0.083 h, LLOQ 1.04 ng/mL, 3 mg/kg): 2253.61 ng/mL and 1125.73 ng/mL and 75.62 b ng/mL | Individual plasma concentration (mouse, intravenous bolus 3 mg/kg, 0.083 h, LLOQ 1.04 ng/mL, listed as ICQH, 3 mg/kg): 2253.61 ng/mL and 1125.73 ng/mL and 75.62 ng/mL | Individual plasma concentration (mouse, intravenous bolus 3 mg/kg, 0.25 h, LLOQ 1.04 ng/mL, listed as ICQH, 3 mg/kg): 199.60 ng/mL and 307.05 ng/mL and 225.35 ng/mL | Individual plasma concentration (mouse, intravenous bolus 3 mg/kg, 0.5 h, LLOQ 1.04 ng/mL, 3 mg/kg): 388.25 ng/mL and 148.82 ng/mL and 339.56 ng/mL | Individual plasma concentration (mouse, intravenous bolus 3 mg/kg, 0.5 h, LLOQ 1.04 ng/mL, listed as ICQH, 3 mg/kg): 388.25 ng/mL and 148.82 ng/mL and 339.56 ng/mL | Individual plasma concentration (mouse, intravenous bolus 3 mg/kg, 1 h, LLOQ 1.04 ng/mL, listed as ICQH, 3 mg/kg): 184.80 ng/mL and 116.46 ng/mL and 140.18 ng/mL | Individual plasma concentration (mouse, intravenous bolus 3 mg/kg, 2 h, LLOQ 1.04 ng/mL, listed as ICQH, 3 mg/kg): 71.88 ng/mL and 76.60 ng/mL and 47.02 ng/mL | Individual plasma concentration (mouse, intravenous bolus 3 mg/kg, 4 h, LLOQ 1.04 ng/mL, listed as ICQH, 3 mg/kg): 42.37 ng/mL and 27.25 ng/mL and 38.13 ng/mL | Individual plasma concentration (mouse, intravenous bolus 3 mg/kg, 8 h, LLOQ 1.04 ng/mL, listed as ICQH, 3 mg/kg): 10.11 ng/mL and 5.65 ng/mL and 11.10 ng/mL | Individual plasma concentration (mouse, oral solution 15 mg/kg, 0.25 h, LLOQ 1.04 ng/mL): 53.05 ng/mL and 113.38 ng/mL and 254.20 ng/mL | Individual plasma concentration (mouse, oral solution 15 mg/kg, 0.25 h, LLOQ 1.04 ng/mL, listed as ICQH): 53.05 ng/mL and 113.38 ng/mL and 254.20 ng/mL | Individual plasma concentration (mouse, oral solution 15 mg/kg, 0.5 h, LLOQ 1.04 ng/mL): 96.22 ng/mL and 72.56 ng/mL and 273.76 ng/mL | Individual plasma concentration (mouse, oral solution 15 mg/kg, 0.5 h, LLOQ 1.04 ng/mL, listed as ICQH): 96.22 ng/mL and 72.56 ng/mL and 273.76 ng/mL | Individual plasma concentration (mouse, oral solution 15 mg/kg, 1 h, LLOQ 1.04 ng/mL): 143.63 ng/mL and 32.21 ng/mL and 422.48 ng/mL | Individual plasma concentration (mouse, oral solution 15 mg/kg, 1 h, LLOQ 1.04 ng/mL, listed as ICQH): 143.63 ng/mL and 32.21 ng/mL and 422.48 ng/mL | Individual plasma concentration (mouse, oral solution 15 mg/kg, 2 h, LLOQ 1.04 ng/mL): 51.85 ng/mL and 95.13 ng/mL and 142.67 ng/mL | Individual plasma concentration (mouse, oral solution 15 mg/kg, 2 h, LLOQ 1.04 ng/mL, listed as ICQH): 51.85 ng/mL and 95.13 ng/mL and 142.67 ng/mL | Individual plasma concentration (mouse, oral solution 15 mg/kg, 4 h, LLOQ 1.04 ng/mL): 185.50 ng/mL and 87.82 ng/mL and 164.88 ng/mL | Individual plasma concentration (mouse, oral solution 15 mg/kg, 4 h, LLOQ 1.04 ng/mL, listed as ICQH): 185.50 ng/mL and 87.82 ng/mL and 164.88 ng/mL | Individual plasma concentration (mouse, oral solution 15 mg/kg, 8 h, LLOQ 1.04 ng/mL, listed as ICQH): 76.65 ng/mL and 71.29 ng/mL and 78.06 ng/mL | Individual plasma concentration (mouse, oral solution 15 mg/kg, 12 h, LLOQ 1.04 ng/mL): 4.05 ng/mL and 11.47 ng/mL and 11.21 ng/mL | Individual plasma concentration (mouse, oral solution 15 mg/kg, 12 h, LLOQ 1.04 ng/mL, listed as ICQH): 4.05 ng/mL and 11.47 ng/mL and 11.21 ng/mL
